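1) Cells in 96-well plates. 2) Compound, 48 h, 5 concentrations. 3) Linear interpolation between surrounding doses. 4) Unreached endpoint = highest concentration. Abbreviation: GI50, concentration required for 50% inhibition of growth.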 Activity calls are given as the source filed them. Cut-off read from the data, not from the text of the source: active = GI50 up to about 1.1 µM and inactive = higher.
Legend:
Assay in all cases: NCI tumour cell line growth inhibition, 48 h
COLO 205 = system: COLO 205
CCRF-CEM = system: CCRF-CEM
SK-MEL-28 = system: SK-MEL-28
SF-268 = system: SF-268
SF-539 = system: SF-539
HCT-116 = system: HCT-116
NCI-H522 = system: NCI-H522
M14 = system: M14
DMS-114 = system: DMS-114
DLD-1 = system: DLD-1
EKVX = system: EKVX
DMS-273 = system: DMS-273
SN12C = system: SN12C
CAKI-1 = system: CAKI-1
MOLT-4 = system: MOLT-4
HT-29 = system: HT-29
RXF 393 = system: RXF 393
OVCAR-5 = system: OVCAR-5
UO-31 = system: UO-31
TK-10 = system: TK-10
HOP-18 = system: HOP-18
HL-60 = system: HL-60
NCI-H226 = system: NCI-H226
A498 = system: A498
LXFL 529 = system: LXFL 529
SNB-75 = system: SNB-75
SNB-78 = system: SNB-78
K562 = system: K562
KM12 = system: KM12
NCI-H460 = system: NCI-H460
SNB-19 = system: SNB-19
Malme-3M = system: Malme-3M
RPMI-8226 = system: RPMI-8226
M19-MEL = system: M19-MEL
A549 = system: A549
LOX IMVI = system: LOX IMVI
HCC 2998 = system: HCC 2998
OVCAR-8 = system: OVCAR-8
SK-OV-3 = system: SK-OV-3
HOP-62 = system: HOP-62
UACC-62 = system: UACC-62
SF-295 = system: SF-295
HCT-15 = system: HCT-15
U-251 = system: U-251
ACHN = system: ACHN
786-0 = system: 786-0
OVCAR-3 = system: OVCAR-3
SK-MEL-2 = system: SK-MEL-2
SK-MEL-5 = system: SK-MEL-5
KM-20L2 = system: KM-20L2
XF498 = system: XF498
UACC-257 = system: UACC-257
NCI-H23 = system: NCI-H23
HOP-92 = system: HOP-92
SW-620 = system: SW-620
IGROV-1 = system: IGROV-1
SR = system: SR
OVCAR-4 = system: OVCAR-4

Q: Which results are given for O=C(NO)C12C3C4C1C1C2C3C41C(=O)NO (configuration not stated)?
A: GI50 (COLO 205): > 100 µM (inactive); GI50 (CCRF-CEM): > 100 µM (inactive); GI50 (SK-MEL-28): > 100 µM (inactive); GI50 (SF-268): > 100 µM (inactive); GI50 (SF-539): > 100 µM (inactive); GI50 (HCT-116): > 100 µM (inactive); GI50 (NCI-H522): > 100 µM (inactive); GI50 (M14): > 100 µM (inactive); GI50 (DMS-114): > 100 µM (inactive); GI50 (DLD-1): > 100 µM (inactive); GI50 (EKVX): > 100 µM (inactive); GI50 (DMS-273): > 100 µM (inactive); GI50 (SN12C): > 100 µM (inactive); GI50 (CAKI-1): > 100 µM (inactive); GI50 (MOLT-4): > 100 µM (inactive); GI50 (HT-29): > 100 µM (inactive); GI50 (RXF 393): > 100 µM (inactive); GI50 (OVCAR-5): > 100 µM (inactive); GI50 (UO-31): > 100 µM (inactive); GI50 (TK-10): > 100 µM (inactive); GI50 (HOP-18): > 100 µM (inactive); GI50 (HL-60): > 100 µM (inactive); GI50 (NCI-H226): > 100 µM (inactive); GI50 (A498): > 100 µM (inactive); GI50 (LXFL 529): 37.2 µM (inactive); GI50 (SNB-75): > 100 µM (inactive); GI50 (SNB-78): > 100 µM (inactive); GI50 (K562): > 100 µM (inactive); GI50 (KM12): > 100 µM (inactive); GI50 (NCI-H460): > 100 µM (inactive); GI50 (SNB-19): > 100 µM (inactive); GI50 (Malme-3M): > 100 µM (inactive); GI50 (RPMI-8226): > 100 µM (inactive); GI50 (M19-MEL): > 100 µM (inactive); GI50 (A549): > 100 µM (inactive); GI50 (LOX IMVI): > 100 µM (inactive); GI50 (HCC 2998): > 100 µM (inactive); GI50 (OVCAR-8): > 100 µM (inactive); GI50 (SK-OV-3): > 100 µM (inactive); GI50 (HOP-62): > 100 µM (inactive); GI50 (UACC-62): > 100 µM (inactive); GI50 (SF-295): > 100 µM (inactive); GI50 (HCT-15): > 100 µM; GI50 (U-251): > 100 µM (inactive); GI50 (ACHN): > 100 µM (inactive); GI50 (786-0): > 100 µM (inactive); GI50 (OVCAR-3): > 100 µM (inactive); GI50 (SK-MEL-2): > 100 µM (inactive); GI50 (SK-MEL-5): > 100 µM (inactive); GI50 (KM-20L2): > 100 µM (inactive)

Q: Which results are given for Cc1cccc(C)c1NC(=O)CCC(=O)NNC(=O)c1cc(O)c2ccccc2c1?
A: GI50 (XF498): 50.6 µM (inactive); GI50 (COLO 205): 18.7 µM (inactive); GI50 (CCRF-CEM): 12.2 µM (inactive); GI50 (SK-MEL-28): 44.8 µM (inactive); GI50 (SF-268): 27.6 µM (inactive); GI50 (SF-539): 27.9 µM (inactive); GI50 (HCT-116): 31.9 µM (inactive); GI50 (NCI-H522): 26.3 µM (inactive); GI50 (M14): 31.4 µM (inactive); GI50 (UACC-257): 44.5 µM (inactive); GI50 (DMS-114): 21.8 µM (inactive); GI50 (DLD-1): 34.9 µM (inactive); GI50 (EKVX): 42.3 µM (inactive); GI50 (SN12C): 78.7 µM (inactive); GI50 (CAKI-1): 31.8 µM (inactive); GI50 (MOLT-4): 19.5 µM (inactive); GI50 (HT-29): 58.3 µM (inactive); GI50 (RXF 393): 5.35 µM (inactive); GI50 (OVCAR-5): 32.7 µM (inactive); GI50 (UO-31): 32.1 µM (inactive); GI50 (NCI-H23): 26.3 µM (inactive); GI50 (TK-10): 70.1 µM (inactive); GI50 (HOP-18): 11.6 µM (inactive); GI50 (HL-60): 27.8 µM (inactive); GI50 (NCI-H226): > 100 µM (inactive); GI50 (A498): 0.344 µM (active); GI50 (LXFL 529): 29.6 µM (inactive); GI50 (HOP-92): > 100 µM (inactive); GI50 (SNB-75): > 100 µM (inactive); GI50 (K562): 23 µM (inactive); GI50 (KM12): 99.1 µM (inactive); GI50 (NCI-H460): 27.6 µM (inactive); GI50 (SNB-19): 23.9 µM (inactive); GI50 (SW-620): 40 µM (inactive); GI50 (Malme-3M): 72.1 µM (inactive); GI50 (RPMI-8226): 56.8 µM (inactive); GI50 (M19-MEL): 35.2 µM (inactive); GI50 (A549): 64.7 µM (inactive); GI50 (LOX IMVI): 25.1 µM (inactive); GI50 (HCC 2998): 51.9 µM (inactive); GI50 (OVCAR-8): 20.7 µM (inactive); GI50 (SK-OV-3): 97.9 µM (inactive); GI50 (HOP-62): 37.9 µM (inactive); GI50 (UACC-62): 25.6 µM (inactive); GI50 (SF-295): 24 µM (inactive); GI50 (HCT-15): 25.3 µM; GI50 (IGROV-1): 30.4 µM (inactive); GI50 (SR): 28.2 µM (inactive); GI50 (U-251): 48.8 µM (inactive); GI50 (ACHN): 37.2 µM (inactive); GI50 (786-0): 38 µM (inactive); GI50 (OVCAR-3): 24.8 µM (inactive); GI50 (SK-MEL-5): 32.3 µM (inactive); GI50 (KM-20L2): 34.4 µM (inactive)

Q: Which results are given for COc1ccc(NC(=O)CC/C(CC(=O)c2ccco2)=N/NC(=O)C(N)=O)cc1?
A: GI50 (XF498): 82.8 µM (inactive); GI50 (COLO 205): > 100 µM (inactive); GI50 (CCRF-CEM): 63.5 µM (inactive); GI50 (SK-MEL-28): 91.2 µM (inactive); GI50 (SF-268): 68.9 µM (inactive); GI50 (SF-539): > 100 µM (inactive); GI50 (NCI-H522): 53 µM (inactive); GI50 (M14): > 100 µM (inactive); GI50 (UACC-257): 54.5 µM (inactive); GI50 (DMS-114): 35.2 µM (inactive); GI50 (DLD-1): > 100 µM (inactive); GI50 (EKVX): > 100 µM (inactive); GI50 (DMS-273): > 100 µM (inactive); GI50 (SN12C): > 100 µM (inactive); GI50 (CAKI-1): > 100 µM (inactive); GI50 (MOLT-4): 46.9 µM (inactive); GI50 (HT-29): > 100 µM (inactive); GI50 (RXF 393): 61.9 µM (inactive); GI50 (OVCAR-5): > 100 µM (inactive); GI50 (UO-31): > 100 µM (inactive); GI50 (NCI-H23): 38.3 µM (inactive); GI50 (TK-10): > 100 µM (inactive); GI50 (HOP-18): > 100 µM (inactive); GI50 (HL-60): 36 µM (inactive); GI50 (NCI-H226): > 100 µM (inactive); GI50 (A498): 76.4 µM (inactive); GI50 (LXFL 529): 65.5 µM (inactive); GI50 (SNB-75): 97.5 µM (inactive); GI50 (K562): 28.1 µM (inactive); GI50 (KM12): > 100 µM (inactive); GI50 (NCI-H460): > 100 µM (inactive); GI50 (SNB-19): 56.8 µM (inactive); GI50 (SW-620): > 100 µM (inactive); GI50 (OVCAR-4): > 100 µM (inactive); GI50 (Malme-3M): 98.9 µM (inactive); GI50 (RPMI-8226): 33.8 µM (inactive); GI50 (M19-MEL): 74.6 µM (inactive); GI50 (A549): > 100 µM (inactive); GI50 (LOX IMVI): > 100 µM (inactive); GI50 (HCC 2998): > 100 µM (inactive); GI50 (OVCAR-8): > 100 µM (inactive); GI50 (SK-OV-3): > 100 µM (inactive); GI50 (HOP-62): > 100 µM (inactive); GI50 (UACC-62): > 100 µM (inactive); GI50 (SF-295): > 100 µM (inactive); GI50 (HCT-15): > 100 µM; GI50 (IGROV-1): > 100 µM (inactive); GI50 (ACHN): > 100 µM (inactive); GI50 (786-0): > 100 µM (inactive); GI50 (OVCAR-3): 46 µM (inactive); GI50 (SK-MEL-2): > 100 µM (inactive); GI50 (SK-MEL-5): 27.4 µM (inactive); GI50 (KM-20L2): > 100 µM (inactive)

Reference: ChEMBL document CHEMBL1201862, “PubChem BioAssay data set” (2004)
